Data: PubChem BioAssay (NCI)
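Cells were grown in 96-well plates and exposed to each compound for 48 hours at five concentrations; endpoints were interpolated linearly between bracketing concentrations, or set to the highest concentration if not reached. At the GI50, growth is halved. TGI: concentration producing complete growth inhibition.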

Legend:
Assay in all cases: NCI tumour cell line growth inhibition, 48 h
[1] = tested on: ACHN renal
[2] = tested on: CCRF-CEM leukemia
[3] = tested on: HOP-92 NSCLC
[4] = tested on: MDA-MB-231 breast
[5] = tested on: OVCAR-8 ovarian
[6] = tested on: SF-268 CNS
[7] = tested on: SF-295 CNS
[8] = tested on: SF-539 CNS
[9] = tested on: TK-10 renal
[10] = tested on: UACC-62 melanoma

Compound	GI50 [1] [µM]	TGI [1] [µM]	GI50 [2] [µM]	TGI [2] [µM]	GI50 [3] [µM]	TGI [3] [µM]	GI50 [4] [µM]	TGI [4] [µM]	GI50 [5] [µM]	TGI [5] [µM]	GI50 [6] [µM]	TGI [6] [µM]	GI50 [7] [µM]	TGI [7] [µM]	GI50 [8] [µM]	TGI [8] [µM]	GI50 [9] [µM]	TGI [9] [µM]	GI50 [10] [µM]	TGI [10] [µM]
O=C(OCc1ccc2cccc(O)c2n1)N1CCN(C(=O)c2cc3cc(F)ccc3[nH]2)CC1	0.615	1.92	0.242	0.995	0.383	1.94	0.966	2.23	1.01	2.47	1.45	3.04	5.69	18.6	1.15	2.36	1.77	3.16	1.17	2.43
O=Cc1cc2c(cc1-c1c(C=O)ccc3c1OCO3)OCO2	–	> 10	–	> 10	–	> 10	–	> 10	–	> 10	–	> 10	–	> 10	–	> 10	–	> 10	–	> 10
C[C@H]1c2cccc(O)c2C(O)=C2C(=O)[C@]3(O)C(O)=C(C(N)=O)C(=O)[C@@H](N(C)C)[C@@H]3[C@@H](O)[C@@H]21	3.53	23.9	–	–	2.35	6.18	3.39	13.5	3.29	14.7	3.33	12.1	2	5.69	3.88	14.8	4.83	47.2	2.53	9.68
O=c1c2ccccc2[se]n1-c1cccnc1	–	88.1	–	–	–	36.1	–	66.6	–	69.5	–	70.6	–	> 100	–	56.5	–	50.1	–	37.1
Clc1ccc2c(NCCCNc3nccc(Nc4ccc(Br)cc4)n3)ccnc2c1	1.66	3.2	–	–	1.32	3.23	1.79	3.47	–	–	1.73	3.32	1.56	2.97	1.81	3.37	1.83	3.26	1.88	3.56
CC(SC(C)C(=O)N/N=C/c1cccc(Cl)c1)C(=O)N/N=C\c1cccc(Cl)c1 (configuration not stated)	5.53	> 100	5.77	52.3	–	–	5.87	28.8	4.78	23.2	10.2	35.5	14.1	35	16.3	44.2	4.66	18.1	20.3	46.2
Oc1[nH]c2ccccc2c1N=Nc1ccccc1Cl	–	15.2	–	> 100	–	–	–	41.6	–	> 64.7	–	> 100	–	> 100	–	> 100	–	32.8	–	> 100
CC(C)=C[C@@H]1C[C@H](C)[C@H]2CC[C@H](C)C3=C2[C@](O)(OC3=O)[C@]1(C)O	> 100	> 100	> 100	> 100	–	–	> 100	> 100	> 100	> 100	–	> 100	> 100	> 100	> 100	> 100	> 100	> 100	99.8	> 100
